Legend:
Plasmopara viticola = assay: Plasmopara test (grapevine) / protective; assay type: in vivo; conditions: young grapevine plants sprayed, active ingredient concentration 10 ppm; evaluation 6 days after inoculation; 100% = no infection
Experimental: Plasmopara Test (Grapevine)/Protective
To produce an appropriate active ingredient formulation, 1 part by weight of active ingredient is mixed with the specified amounts of solvent and emulsifier, and the concentrate is diluted with water to the desired concentration.
To test for protective efficacy, young plants are sprayed with the active ingredient formulation at the stated application rate. After the spray coating has dried on, the plants are inoculated with an aqueous spore suspension of Plasmopara viticola and then remain in an incubation cabin at approx. 20° C. and 100% relative air humidity for 1 day. Subsequently, the plants are placed in a greenhouse at approx. 21° C. and approx. 90% air humidity for 4 days. The plants are then moistened and placed in an incubation cabin for 1 day.
Evaluation follows 6 days after the inoculation. 0% means an efficacy which corresponds to that of the control, whereas an efficacy of 100% means that no infection is observed.
In this test, the following inventive compounds show, at an active ingredient concentration of 10 ppm, an efficacy of 70% or more: […]

Peronospora brassicae = assay: Peronospora test (oilseed rape seeds) / seed treatment; assay type: in vivo; conditions: dose 50 g/dt, 14-day-old plants inoculated, incubated 7 days, infected leaf area, 100% = no disease
Experimental: Peronospora Test (Oilseed Rape Seeds)/Seed Treatment
The test was conducted under greenhouse conditions.
Oilseed rape seeds treated with an inventive active compound or a combination of inventive active compounds dissolved in N-methyl-2-pyrrolidone and diluted with water to the desired dose were sown in 6*6 cm vessels. The vessels contain 4 cm of a 1:1 mixture of steam-treated field soil and sand. The plants grew at 10° C.
14-day-old plants were inoculated with an aqueous spore suspension of Peronospora brassicae. The vessels containing the plants were incubated in a greenhouse at a temperature of 15° C. and a relative air humidity of 100% for 7 days.
The assessment of the test included the evaluation of the infected leaf area per plant. 0% means an efficiency corresponding to that of the control, while an efficiency of 100% means that no disease is observed.

Phytophthora infestans = assay type: in vivo; conditions: young tomato plants sprayed, active ingredient concentration of 100 (unit not given); inoculated 1 day after treatment; evaluation 7 days after inoculation; 100% = no infection
[1] = LC-MS determination in the acidic range, pH 2.7, 0.1% aqueous formic acid and acetonitrile

Row | SMILES | % eff. (Plasmopara viticola) | % eff. (Peronospora brassicae) | % eff. (Phytophthora infestans) | chromatographic logP (physchem; pH 2.7) | Log P [a] [1] | chromatographic logP (physchem; pH 7.8)
1 | O=C(Cn1nc(C(F)F)cc1C(F)F)N1CCC(c2nc(C3=NOC(C(F)(F)c4ccccc4)C3)cs2)CC1 (stereo not drawn) [I-9, 2-[3,5-Bis(difluoromethyl)-1H-pyrazol-1-yl]-1-[4-(4-{5-[difluoro(phenyl)methyl]-4,5-dihydro-1,2-oxazol-3-yl}-1,3-thiazol-2-yl)piperidin-1-yl]ethanone] | 100% | 97% | 100% | 3.41 |  | 
2 | FC(F)c1cc(C(F)F)n(CC(=S)N2CCC(c3nc(C4=NOC(C(F)(F)c5ccccc5)C4)cs3)CC2)n1 (stereo not drawn) [I-31, 2-[3,5-Bis(difluoromethyl)-1H-pyrazol-1-yl]-1-[4-(4-{5-[difluoro(phenyl)methyl]-4,5-dihydro-1,2-oxazol-3-yl}-1,3-thiazol-2-yl)piperidin-1-yl]ethanethione] | 85% |  | 100% | 3.88 |  | 
3 | O=C(Nc1cc(C(F)F)ccc1C(F)F)N1CCC(c2nc(C3=NOC(C(F)(F)c4ccccc4)C3)cs2)CC1 (stereo not drawn) [I-16, N-[2,5-Bis(difluoromethyl)phenyl]-4-(4-{5-[difluoro(phenyl)methyl]-4,5-dihydro-1,2-oxazol-3-yl}-1,3-thiazol-2-yl)piperidine-1-carboxamide] | 87% |  | 100% | 3.64 |  | 
4 | COC(c1ccccc1)C1CC(c2csc(C3(F)CCN(C(=O)Cn4nc(C(F)F)cc4C(F)F)CC3)n2)=NO1 (stereo not drawn) [I-15, 2-[3,5-Bis(difluoromethyl)-1H-pyrazol-1-yl]-1-[4-fluoro-4-(4-{5-[methoxy(phenyl)methyl]-4,5-dihydro-1,2-oxazol-3-yl}-1,3-thiazol-2-yl)piperidin-1-yl]ethanone] |  |  | 95% | 3.56 |  | 
5 | Cc1cc(C(F)(F)F)nn1CC(=O)N1CCC(c2nc(C3=NOC(COc4ccccc4)C3)cs2)CC1 (stereo not drawn) [I-37] | 97% |  | 100% |  | 3.27 | 
6 | Cc1cc(C(F)(F)F)nn1CC(=O)N1CCC(c2nc(C3=NOC(C(C)(C)c4c(F)cccc4F)C3)cs2)CC1 (stereo not drawn) [I-62] | 96% |  | 91% |  | 4.09 | 
7 | O=C(Cn1nc(C(F)F)cc1C(F)F)N1CCC(c2nc(C3=NOC(COc4c(F)cccc4F)C3)cs2)CC1 (stereo not drawn) [I-43, 2-[3,5-Bis(difluoromethyl)-1H-pyrazol-1-yl]-1-[4-(4-{5-[(2,6-difluorophenoxy)methyl]-4,5-dihydro-1,2-oxazol-3-yl}-1,3-thiazol-2-yl)piperidin-1-yl]ethanone] | 100% | 98% | 95% | 3.3 |  | 3.23
8 | Fc1cccc(F)c1C(F)C1CC(c2csc(C3CCN(C(=S)Cn4nc(C(F)F)cc4C(F)F)CC3)n2)=NO1 (stereo not drawn) [I-18] | 100% |  | 95% |  | 3.81^[a] | 
9 | Cc1ccc(C)c(NC(=S)N2CCC(c3nc(C4=NOC(C(F)c5ccccc5)C4)cs3)CC2)c1 (stereo not drawn) [I-39] | 78% |  | 100% |  | 3.61^[a] | 
10 | O=C(Cn1nc(C(F)F)cc1C(F)F)N1CCC(c2nc(-c3cc(COc4ccccc4)on3)cs2)CC1 [I-44] | 100% |  | 95% |  | 3.63 | 
11 | Cc1cc(C(F)F)nn1CC(=O)N1CCC(c2nc(C3=NOC(COc4c(Cl)cccc4Cl)C3)cs2)CC1 (stereo not drawn) [I-45] | 100% |  | 93% |  | 3.35 | 
12 | Fc1cccc(F)c1C(F)(F)C1CC(c2csc(C3CCN(C(=S)Cn4nc(C(F)F)cc4C(F)F)CC3)n2)=NO1 (stereo not drawn) [I-42] | 100% |  | 95% |  | 3.94^[a] | 
13 | C[Si](C)(c1ccccc1)C1CC(c2csc(C3CCN(C(=O)Cn4nc(C(F)F)cc4C(F)F)CC3)n2)=NO1 (stereo not drawn) [I-40] | 92% |  | 100% |  | 4.01 | 
14 | COc1ccccc1OCC1CC(c2csc(C3CCN(C(=O)Cn4nc(C(F)F)cc4C(F)F)CC3)n2)=NO1 (stereo not drawn) [I-26] | 96% |  | 100% |  | 3.01 | 
15 | O=C(Cn1nc(C(F)F)cc1C(F)F)N1CCC(c2nc(C3=NOC(CSc4c(Cl)cccc4Cl)C3)cs2)CC1 (stereo not drawn) [I-58] | 100% |  | 94% |  | 3.99 | 
16 | CC(=O)c1ccccc1OCC1CC(c2csc(C3CCN(C(=O)Cn4nc(C(F)F)cc4C(F)F)CC3)n2)=NO1 (stereo not drawn) [I-12] | 70% |  | 100% |  | 2.93 | 
17 | O=C(Cn1nc(C(F)F)cc1C(F)F)N1CCC(c2nc(C3=NOC(COc4c(Br)cccc4Br)C3)cs2)CC1 (stereo not drawn) [I-36] | 100% | 78% | 100% |  | 3.9 | 
18 | O=C(Nc1cc(C(F)F)ccc1C(F)F)N1CCC(c2nc(C3=NOC(C(F)(F)c4c(F)cccc4F)C3)cs2)CC1 (stereo not drawn) [I-35] | 100% |  | 95% |  | 3.61^[a] | 
19 | Cc1cc(C(F)(F)F)nn1CC(=O)N1CCC(c2nc(C3=NOC(COc4c(F)cccc4Cl)C3)cs2)CC1 (stereo not drawn) [I-46] | 98% |  | 95% |  | 3.54 | 
20 | Cc1cc(C(F)(F)F)nn1CC(=O)N1CCC(c2nc(C3=NOC(C(F)c4c(F)cccc4F)C3)cs2)CC1 (stereo not drawn) [I-20] | 93% |  | 95% |  | 3.48^[a] | 
21 | O=C(Cn1nc(C(F)F)cc1C(F)F)N1CCC(c2nc(C3=NOC(COc4c(F)cccc4Cl)C3)cs2)CC1 (stereo not drawn) [I-74] | 100% |  | 100% |  | 3.44 | 
22 | O=C(Cn1nc(C(F)F)cc1C(F)F)N1CCC(c2nc(C3=NOC(COc4ccccc4F)C3)cs2)CC1 (stereo not drawn) [I-3] | 100% | 98% | 100% |  | 3.19 | 
23 | O=C(CCC1CC(c2csc(C3CCN(C(=O)Cn4nc(C(F)F)cc4C(F)F)CC3)n2)=NO1)c1ccccc1 (stereo not drawn) [I-6] | 96% |  | 100% |  | 3.16 | 
24 | O=C(Cn1nc(C(F)F)cc1C(F)F)N1CCC(c2nc(C3=NOC(COc4ccccc4)C3)cs2)CC1 (stereo not drawn) [I-2, 2-[3,5-Bis(difluoromethyl)-1H-pyrazol-1-yl]-1-(4-{4-[5-(phenoxymethyl)-4,5-dihydro-1,2-oxazol-3-yl]-1,3-thiazol-2-yl}piperidin-1-yl)ethanone] | 97% | 95% | 100% | 3.22 |  | 3.25
25 | O=C(Nc1cc(C(F)F)ccc1C(F)F)N1CCC(c2nc(C3=NOC(C(F)c4c(F)cccc4F)C3)cs2)CC1 (stereo not drawn) [I-30] | 100% |  | 95% |  | 3.60^[a] | 
26 | O=C(Cn1nc(C(F)F)cc1C(F)F)N1CCC(c2nc(C3=NOC(C(F)c4c(F)cccc4F)C3)cs2)CC1 (stereo not drawn) [I-17] | 100% |  | 95% |  | 3.36^[a] | 

Reference: patent US20120122928A1 (priority 2010, published 2012)
